Assay results as given in US20090155272A1, “Targeted pharmaceuticals and ligands” (priority 2005, published 2009).
Peptide text beside a SMILES is read from it. * marks the point of attachment. Decanoyl = CCCCCCCCCC(=O)*; CH2Cl = ClC*

Experiments:
[1] = tested on: BT474 and MDA-MB-231 cells; settings: 50 μM, extended periods of time; cited from earlier work
β-DG = experiment: Metalloprotease-dependent shedding and cleavage of dystroglycan in cultured cells (immunoblot); type: cell-based; settings: incubation of the cells with inhibitor
Procedure: FIG. 6A-B depicts a modification of dystroglycan by metalloprotease activity. (A) Structure of α-DG and β-DG. α-DG associates non-covalently with β-DG, which spans the plasma membrane. O-linked glycosylation is shown as a chain of circles of varying length, whereas N-linked glycosylation is shown as branches. (B) Immunoblot analysis of α-DG and β-DG levels in cell lines cultured in the presence or absence of the MP inhibitor BB-2516. Cells were cultured in serum-free medium for two days with or without BB-2516 and then total cellular proteins were extracted and subjected to immunoblot analysis of α-DG and β-DG.
To confirm that metalloprotease activity is indeed blocked by the GM6001, the cleavage of known molecules is monitored. Using identically treated cell populations, proteins are extracted and analyzed by immunoblot. These controls include detecting the cleavage of the β-DG subunit, which is evidenced by a shift in the molecular mass of this protein from 43 kDa to 31 kDa in MDA-MB-231 cells using an antibody binding the β-DG cytoplasmic domain (see FIG. 6).
For example, metalloprotease cleavage events are responsible for the shedding of β-DG from the cell surface, and for direct cleavage of the extracellular domain of β-DG, which is detected by the reduction in the molecular mass of β-DG from 43 kD to 31 kD. Both the shedding of β-DG, and the cleavage of β-DG are blocked by the incubation of the cells with the broad-spectrum MMP inhibitors GM6001 or BB2516. Detection of the cleaved form of p-DG can be completely eliminated after just 24 hours exposure to the MMP inhibitor.

known metalloproteases = settings: 50 μM; cited from earlier work
α-DG = experiment: Immunoprecipitation of the DG complex after furin inhibitor treatment; type: cell-based; settings: EpH4, MDA-MB-231 and MDA-MB-468 cells

Row | Compound | cell viability on extended exposure [1] | cleavage of β-DG (43 kD to 31 kD) (β-DG) | shedding of β-DG from the cell surface (β-DG) | block of activity of known metalloproteases (known metalloproteases) | α-DG band position (α-DG)
1 | CNC(=O)[C@H](Cc1c[nH]c2ccccc12)NC(=O)[C@@H](CC(=O)NO)CC(C)C [GM6001] | without loss of cell viability | blocked | blocked | more than sufficient to block the activity of known metalloproteases | –
2 | CCCCCCCCCC(=O)N[C@@H](CCCN=C(N)N)C(=O)N[C@H](C(=O)N[C@@H](CCCCN)C(=O)N[C@@H](CCCN=C(N)N)C(=O)CCl)C(C)C [CMK] (Decanoyl-RVKR-CH2Cl) | – | – | – | – | shifted upward in all cells
3 | CNC(=O)[C@@H](NC(=O)[C@H](CC(C)C)[C@H](O)C(=O)NO)C(C)(C)C [BB2516] | – | blocked | blocked | – | –
